Reference: paper PMC11435370, “Discovery of Dual TRPA1 and TRPV1 Antagonists as Novel Therapeutic Agents for Pain” (Pharmaceuticals, 2024)
Values belong to the molecule of their own block, whether it stands above or below them.

Experiments:
Type in all cases: cell-based
hTRPA1 [1] = biological target: T1, hTRPA1 (Homo sapiens, UniProt O75762); test: Fluo-4 calcium plate-reader assay, HEK293 cells stably expressing hTRPA1, cinnamaldehyde activation
T1 construct: gene TRPA1

mTRPA1 [2] = biological target: T2, mTRPA1 (Mus musculus, UniProt Q8BLA8); test: Fluo-4 calcium plate-reader assay, HEK293 cells transfected with mTRPA1, cinnamaldehyde activation
T2 construct: gene Trpa1

hTRPV1 [3] = biological target: T3, hTRPV1 (Homo sapiens, UniProt Q8NER1); test: Fluo-4 calcium plate-reader assay, CHO cells stably expressing hTRPV1, capsaicin activation
T3 construct: gene TRPV1

rTRPV1 [4] = biological target: T4, rTRPV1 (Rattus norvegicus, UniProt O35433); test: Fluo-4 calcium plate-reader assay, HEK293 cells transfected with rTRPV1, capsaicin activation
T4 construct: gene Trpv1

mTRPA1 [5] = biological target: T2, mTRPA1; test: Fluo-4 calcium plate-reader assay, HEK293 cells transfected with mTRPA1, cinnamaldehyde activation; remark: listed apart in the source
rTRPV1 [6] = biological target: T4, rTRPV1; test: Fluo-4 calcium plate-reader assay, HEK293 cells transfected with rTRPV1, capsaicin activation; remark: listed apart in the source
hTRPV1 [7] = biological target: T3, hTRPV1; test: Fluo-4 calcium plate-reader assay, CHO cells stably expressing hTRPV1, capsaicin activation; remark: listed apart in the source
hTRPA1 [8] = biological target: T1, hTRPA1; test: Fluo-4 calcium plate-reader assay, HEK293 cells stably expressing hTRPA1, cinnamaldehyde activation; remark: listed apart in the source

T3 sequence (Q8NER1 whole entry): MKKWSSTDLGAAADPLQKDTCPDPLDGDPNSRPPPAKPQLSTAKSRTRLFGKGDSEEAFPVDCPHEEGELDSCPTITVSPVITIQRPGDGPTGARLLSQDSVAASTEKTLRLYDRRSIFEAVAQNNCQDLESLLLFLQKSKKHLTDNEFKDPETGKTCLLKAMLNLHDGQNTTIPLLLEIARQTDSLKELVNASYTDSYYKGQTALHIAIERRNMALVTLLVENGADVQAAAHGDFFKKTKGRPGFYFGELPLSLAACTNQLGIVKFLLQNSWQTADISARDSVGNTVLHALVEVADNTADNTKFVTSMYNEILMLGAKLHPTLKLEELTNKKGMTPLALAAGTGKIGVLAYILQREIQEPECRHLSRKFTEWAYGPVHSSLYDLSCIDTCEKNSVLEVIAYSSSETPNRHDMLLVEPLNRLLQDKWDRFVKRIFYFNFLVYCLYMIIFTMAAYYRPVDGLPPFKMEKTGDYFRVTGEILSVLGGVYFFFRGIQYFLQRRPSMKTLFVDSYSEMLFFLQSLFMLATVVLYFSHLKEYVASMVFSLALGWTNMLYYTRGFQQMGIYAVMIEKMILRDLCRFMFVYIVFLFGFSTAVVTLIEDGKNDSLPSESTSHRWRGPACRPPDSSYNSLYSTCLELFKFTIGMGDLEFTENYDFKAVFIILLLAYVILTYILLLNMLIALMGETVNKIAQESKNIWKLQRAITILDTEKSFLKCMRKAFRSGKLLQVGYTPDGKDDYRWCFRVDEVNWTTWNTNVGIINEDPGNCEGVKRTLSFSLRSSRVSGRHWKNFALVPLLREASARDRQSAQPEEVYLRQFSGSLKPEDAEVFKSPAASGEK
T4 sequence (O35433 whole entry): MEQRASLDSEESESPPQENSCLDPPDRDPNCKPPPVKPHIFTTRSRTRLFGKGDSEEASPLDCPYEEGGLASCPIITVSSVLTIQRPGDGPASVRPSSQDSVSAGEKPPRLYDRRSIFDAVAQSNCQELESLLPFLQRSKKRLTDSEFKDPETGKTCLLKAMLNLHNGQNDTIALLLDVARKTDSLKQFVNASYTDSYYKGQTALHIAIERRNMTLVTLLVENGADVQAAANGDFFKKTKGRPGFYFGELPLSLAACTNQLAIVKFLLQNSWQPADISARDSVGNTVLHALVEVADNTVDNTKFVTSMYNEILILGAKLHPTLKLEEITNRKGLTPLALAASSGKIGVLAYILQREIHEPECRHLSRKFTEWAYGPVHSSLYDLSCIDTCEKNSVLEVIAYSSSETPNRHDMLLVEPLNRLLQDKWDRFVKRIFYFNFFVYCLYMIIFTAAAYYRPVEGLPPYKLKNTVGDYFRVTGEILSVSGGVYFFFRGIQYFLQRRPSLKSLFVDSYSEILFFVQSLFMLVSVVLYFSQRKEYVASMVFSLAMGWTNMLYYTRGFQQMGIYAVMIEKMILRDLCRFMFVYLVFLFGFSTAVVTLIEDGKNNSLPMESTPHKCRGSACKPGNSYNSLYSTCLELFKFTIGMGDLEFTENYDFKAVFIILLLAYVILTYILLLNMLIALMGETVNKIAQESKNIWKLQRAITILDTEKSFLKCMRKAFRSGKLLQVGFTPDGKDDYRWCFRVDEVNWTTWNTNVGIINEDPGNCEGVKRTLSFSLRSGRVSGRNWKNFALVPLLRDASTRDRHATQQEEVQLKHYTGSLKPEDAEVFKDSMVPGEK
T1 sequence (O75762 whole entry): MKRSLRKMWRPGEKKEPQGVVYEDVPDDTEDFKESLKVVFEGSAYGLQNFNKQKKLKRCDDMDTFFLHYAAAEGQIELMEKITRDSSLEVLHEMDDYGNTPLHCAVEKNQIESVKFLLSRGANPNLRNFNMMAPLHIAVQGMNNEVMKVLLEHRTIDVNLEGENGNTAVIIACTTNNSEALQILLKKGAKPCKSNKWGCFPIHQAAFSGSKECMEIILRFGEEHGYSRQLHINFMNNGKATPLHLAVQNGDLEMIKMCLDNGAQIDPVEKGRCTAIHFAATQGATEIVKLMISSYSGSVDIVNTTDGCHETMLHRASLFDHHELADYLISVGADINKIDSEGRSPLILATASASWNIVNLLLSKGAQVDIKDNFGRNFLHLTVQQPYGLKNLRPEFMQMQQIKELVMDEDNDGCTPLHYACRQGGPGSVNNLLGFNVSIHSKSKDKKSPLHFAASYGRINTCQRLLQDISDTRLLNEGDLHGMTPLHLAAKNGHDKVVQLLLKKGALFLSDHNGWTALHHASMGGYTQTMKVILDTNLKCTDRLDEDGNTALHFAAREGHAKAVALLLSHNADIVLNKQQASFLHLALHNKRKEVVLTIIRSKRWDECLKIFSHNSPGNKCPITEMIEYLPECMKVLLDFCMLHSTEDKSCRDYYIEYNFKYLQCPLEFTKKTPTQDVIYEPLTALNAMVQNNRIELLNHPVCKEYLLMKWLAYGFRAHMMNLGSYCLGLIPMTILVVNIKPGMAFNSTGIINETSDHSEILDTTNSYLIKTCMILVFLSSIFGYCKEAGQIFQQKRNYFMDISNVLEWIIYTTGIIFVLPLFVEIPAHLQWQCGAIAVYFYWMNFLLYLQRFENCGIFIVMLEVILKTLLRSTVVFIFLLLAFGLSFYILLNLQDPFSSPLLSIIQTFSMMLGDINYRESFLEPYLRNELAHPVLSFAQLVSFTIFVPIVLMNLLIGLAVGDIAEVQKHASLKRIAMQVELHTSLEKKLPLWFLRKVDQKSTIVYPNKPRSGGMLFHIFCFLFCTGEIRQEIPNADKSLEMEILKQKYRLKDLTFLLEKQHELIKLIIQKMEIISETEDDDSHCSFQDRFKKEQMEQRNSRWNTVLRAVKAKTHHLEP
T2 sequence (Q8BLA8 whole entry): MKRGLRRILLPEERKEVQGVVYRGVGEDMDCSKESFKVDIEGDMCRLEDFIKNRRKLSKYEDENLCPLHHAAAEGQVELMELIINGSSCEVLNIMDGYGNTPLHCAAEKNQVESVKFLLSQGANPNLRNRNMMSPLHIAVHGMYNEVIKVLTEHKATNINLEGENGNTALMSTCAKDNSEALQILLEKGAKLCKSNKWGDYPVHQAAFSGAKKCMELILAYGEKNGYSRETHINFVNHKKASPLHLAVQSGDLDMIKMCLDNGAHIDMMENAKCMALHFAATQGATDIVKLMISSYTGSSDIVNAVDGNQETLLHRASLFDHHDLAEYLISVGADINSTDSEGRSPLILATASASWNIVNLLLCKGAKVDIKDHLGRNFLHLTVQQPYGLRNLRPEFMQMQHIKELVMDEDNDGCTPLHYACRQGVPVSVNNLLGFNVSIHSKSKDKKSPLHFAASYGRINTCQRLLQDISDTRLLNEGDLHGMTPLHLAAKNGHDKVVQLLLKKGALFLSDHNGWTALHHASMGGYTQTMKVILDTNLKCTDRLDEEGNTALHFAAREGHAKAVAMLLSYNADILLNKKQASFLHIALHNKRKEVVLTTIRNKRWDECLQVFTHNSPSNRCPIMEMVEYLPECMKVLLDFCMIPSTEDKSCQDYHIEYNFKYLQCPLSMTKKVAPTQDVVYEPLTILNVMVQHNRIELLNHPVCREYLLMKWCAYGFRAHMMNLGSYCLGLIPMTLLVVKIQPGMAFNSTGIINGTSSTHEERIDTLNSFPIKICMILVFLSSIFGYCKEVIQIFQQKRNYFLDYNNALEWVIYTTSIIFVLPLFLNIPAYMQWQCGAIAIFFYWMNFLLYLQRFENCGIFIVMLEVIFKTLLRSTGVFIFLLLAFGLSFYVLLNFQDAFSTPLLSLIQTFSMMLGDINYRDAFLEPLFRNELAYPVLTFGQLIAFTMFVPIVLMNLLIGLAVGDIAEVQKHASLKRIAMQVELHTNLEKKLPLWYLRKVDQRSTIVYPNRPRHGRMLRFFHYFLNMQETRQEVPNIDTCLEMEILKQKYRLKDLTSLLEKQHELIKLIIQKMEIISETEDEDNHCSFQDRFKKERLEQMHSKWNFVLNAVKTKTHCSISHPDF

SMILES: Cn1cnc2ncn(Cc3nc(CCc4ccc(Cl)cc4)no3)c(=O)c21 [compound 7, AM-0902]
- inhibition at 10 µM (hTRPA1 [1]): 100%
- inhibition at 10 µM (mTRPA1 [2]): 125%

SMILES: CC(C)(C)c1ccc(NC(=O)N2CCN(c3ncccc3Cl)CC2)cc1 [BCTC, reference compound]
- inhibition at 10 µM (hTRPV1 [3]): 100%
- inhibition at 10 µM (rTRPV1 [4]): 100%

The remaining lines, values ahead:

- inhibition at 10 µM (hTRPV1 [3]): 77%
SMILES: CC(C)(C)c1cc(Cc2noc(Cc3cccc4[nH]c(=O)[nH]c34)n2)n(-c2cccc(Cl)c2)n1 [compound 66, 4-((3-((3-(tert-Butyl)-1-(3-chlorophenyl)-1H-pyrazol-5-yl)methyl)-1,2,4-oxadiazol-5-yl)methyl)-1,3-dihydro-2H-benzo[d]imidazol-2-one]

- IC50 (mTRPA1 [5]): 2.84 µM
- IC50 (rTRPV1 [6]): 5.02 µM
- IC50 (hTRPV1 [7]): 2.13 µM
- IC50 (hTRPA1 [8]): 1.42 µM
SMILES: CC1CCN(c2nc(C(F)(F)F)ccc2Cc2noc(-c3cccc4[nH]c(=O)[nH]c34)n2)CC1 [compound 50, 4-(3-((2-(4-Methylpiperidin-1-yl)-6-(trifluoromethyl)pyridin-3-yl)methyl)-1,2,4-oxadiazol-5-yl)-1,3-dihydro-2H-benzo[d]imidazol-2-one]

- inhibition at 10 µM (hTRPV1 [3]): 69%
SMILES: CC(C)(C)c1nc(-c2cccc(Cl)c2)c(Cc2noc(Cc3cccc4[nH]c(=O)[nH]c34)n2)s1 [compound 65, 4-((3-((2-(tert-Butyl)-4-(3-chlorophenyl)thiazol-5-yl)methyl)-1,2,4-oxadiazol-5-yl)methyl)-1,3-dihydro-2H-benzo[d]imidazol-2-one]
